Read-outs that look alike come from different tables or passages of the source.
Columns and labels:
Caski cells [1] = assay: cell viability (MTS, Celltiter 96 AQueous) Caski; format: cell-based, human; details: 48 to 96 hours, relative to DMSO
Caski cells [2] = assay: SA-beta-gal senescence assay in Caski cells; format: cell-based, human; details: 72 hours, versus vehicle
Description: This was specific to Caski cells and was not observed in RPE-1, HeLa cells, or the HPV negative control cell lines C33a and HaCat (Figures S2A,B ). […] As observed in the viability assay, this occurred in both the HPV positive and negative cell lines. […] These cell lines were also assayed for apoptosis.
12,000 cells per cm^2 were plated in 24-well dishes; after 24 hours, fresh media and compound were added. SA-beta gal staining was performed as described. Images were collected using bright field microscopy. At least four fields (~100 cells per field) were read for each treatment, and experiments were repeated 3 times. The percent SA-beta-gal positive cells was calculated for each data point.

[3] = system: E6/E7 immortalized human foreskin keratinocytes; assay: p53/p21 immunoblot analysis in E6/E7 immortalized HFKs; format: cell-based; details: 40 hours
Description: Each compound was used to treat primary HFKs or HFKs immortalized through the over-expression of HPV16 E6 and E7 proteins.
20,000 cells per cm^2 were plated in 6-well dishes. Cells were incubated for 24 hours at which time fresh media and compound were added. After 40 hours, cells were harvested, washed with cold PBS, and lysed in RIPA buffer with protease inhibitor. Each sample was separated on a 12% SDS-page gel, transferred to Immobilon-P membrane (Millipore) and blotted for the p53 (DO-1, Santa Cruz), p21 (c-19, Santa Cruz), and actin (A2066, Sigma). Protein quantification was performed with the Fujifilm LAS-4000 Multifunctional Imaging System. The signal intensity was measured for each band on an immunoblot, normalized to the loading control, and the fold increase was determined in relation to the appropriate DMSO treated control. RNA was isolated from these cells using Trizol Reagent (Invitrogen 15596-026). cDNA was generated using the Improm-II Reverse Transcription System (Promega A3801). qPCR was performed as described in the protocol for SsoFast EvaGreen supermix (BioRad 172-5023) using an BioRad CFX96 real-time PCR machine. Melting curves for each reaction were obtained. Each sample was assayed in triplicate and every plate contained a 5-point cDNA dilution course to calculate amplification efficiency for each primer pair. The Pfaffl method was used to determine the change in transcript levels relative to the DMSO and normalized to GAPDH.

p21^Cip1/Waf1 mRNA = assay: p21 mRNA qRT-PCR; format: cell-based, human; details: relative to DMSO, normalized to GAPDH
Description: It is possible that the increased p53 and p21 levels resulted from non-specific inhibition of protein degradation. However, if the increase in p21 was dependent upon p53 promoter activation, it should be possible to detect changes in the amounts of p21 mRNA detected in treated cells. To confirm that the increase in p21 protein level resulted from p53 activation, the levels of p21 mRNA were analyzed using qRT-PCR.
Figure 6 Induction of p21^Cip1/Waf1 mRNA. Compounds were tested for the ability to induce p21^Cip1/Waf1 expression at the mRNA level. Relative increases in transcripts were determined by qRT-PCR. […] Fold induction was calculated in relation to treatment with DMSO and normalized to GAPDH. Data were analyzed using one-way ANOVA with post-hoc analysis (Dunnetts; S.E.M.; n=2). Statistical significance (p<0.01) is indicated as * in comparison to Caski control (DMSO), # E6/E7 HFK control (DMSO), § HFK control (DMSO), and ◙ for RPE-1 control (DMSO).
20,000 cells per cm^2 were plated in 6-well dishes. Cells were incubated for 24 hours at which time fresh media and compound were added. […] Protein quantification was performed with the Fujifilm LAS-4000 Multifunctional Imaging System. The signal intensity was measured for each band on an immunoblot, normalized to the loading control, and the fold increase was determined in relation to the appropriate DMSO treated control. […]

[4] = molecular target: T1, interaction between HPV-16 E6 and E6AP (Human papillomavirus type 16, UniProt P03126); assay: biochemical; format: binding; details: for Emax: read-out: Maximal Inhibition
T1 construct: made in house; host or cells: E. coli BL21
Description: To characterize potential E6 inhibitors, a robust in vitro assay was developed to measure the interaction between HPV-16 E6 and E6AP. […] The core 70 amino acids of the E6 binding region of E6AP (residues 371-440) was fused to bacterial alkaline phosphatase (BAP) in the MY101 vector [40]. […] Binding efficiency was determined from the intensity of BAP activated chemiluminescence remaining in each well.
Kinetic analysis was performed to characterize the protein-protein interaction inherent in this assay.
The collection of 72 available structural-lead compounds was tested in the filter-plate based in vitro E6-E6AP binding assay. […] Compounds that disrupted the Flag-BAP interaction with the same potency as the HPV-16 E6 and E6AP interaction were classified as non-specific and eliminated from further analysis. […]
Pre-Block - 96-well filter plates were prepared (0.2 µm BioTrace NT, Pall). 100µL of blocking buffer (100 mM Tris pH 8.0, 100 mM NaCl, 0.1% milk) was added per well. Plates were blocked for 1 hr at RT on an orbital shaker. Buffer was removed by vacuum filtration using a vacuum manifold. GST-E6 Bead addition – GST-E6 beads were prepared at 5µg/mL in GST-E6 bead buffer (100 mM Tris pH 8.0, 100 mM NaCl, 0.1% milk, 2.5 mM DTT). 100µL of GST-E6 bead mix was added per well and incubated for 1 hr at 4°C. Buffer was removed by vacuum filtration. […] 48 µL of each reagent was added per well. For drug assay, 2µL of compound was added to each well and mixed thoroughly. […] Plates were incubated for 1-3 hours at RT on an orbital shaker. Buffer was removed by vacuum filtration. Plates were washed on the vacuum manifold, first with 200 µL buffer (100 mM Tris pH 8.0, 100 mM NaCl, 1 mM DTT), and twice more with 100µL lysis buffer without DTT. Plates were cleared and dried with on the vacuum manifold. Assay – Immunostar assay reagent was prepared and equilibrated to RT prior to addition. 60 µL of Immunostar-AP assay reagent was added, the BAP activity was allowed to develop for 10 minutes and the plates were read on a Wallace Luminometer. BAP activity was measured as relative light units (RLU) on a luminometer using the Immunostar-AP substrate (BioRad).

[5] = full 7-point dose response, 0.5 µM to 333 µM, quadruplicate

T1 sequence (P03126 whole entry): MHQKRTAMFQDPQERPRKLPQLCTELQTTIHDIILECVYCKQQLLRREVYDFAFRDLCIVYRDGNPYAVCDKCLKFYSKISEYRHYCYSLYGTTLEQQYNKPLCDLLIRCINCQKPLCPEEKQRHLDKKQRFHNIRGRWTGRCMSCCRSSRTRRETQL

SMILES | cell growth and viability (Caski cells [1]) | SA-β-gal staining (Caski cells [2]) | p21 protein levels [3] | p53 protein levels [3] | p21 mRNA level (p21^Cip1/Waf1 mRNA) | IC50 [4] [µM] | inhibition of the interaction between E6 and E6AP ([4]; full 7-point binding assay, maximum) | IC50 [4, 5] | Emax [4] [%]
O=c1cc(-c2ccc(O)c(O)c2)oc2cc(O)cc(O)c12 [luteolin, reference compound] | potent inhibitor of Caski, E6/E7 HFKs, and HeLa growth | no significant increase in β-gal staining | increased p53 and p21 protein levels | increased p53 and p21 protein levels | increase in p21 mRNA | 4.3 | up to 100% | low micromolar IC50 values | 99
COc1cccc(-c2cc(=O)c3cc(-c4nnn[nH]4)ccc3o2)c1 [CAF-24] | selectively inhibited growth | increased more than two-fold | increased p53 and p21 protein levels | increased p53 and p21 protein levels | increase in p21 mRNA | 2.8 | – | low micromolar IC50 values | 95

— publication PMC3871595, “Structure Based Identification and Characterization of Flavonoids That Disrupt Human Papillomavirus-16 E6 Function” (PLoS ONE, 2013)
